The values that follow come from patent US20260042743A1, “SUBSTITUTED BENZIMIDAZOLES FOR TREATING VIRAL DISEASES” (COUNCIL OF SCIENTIFIC AND INDUSTRIAL RESEARCH, priority 2022, published 2026).

Structures are written as SMILES.

This experiment relates to SARS-CoV-2. In words: cell-based anti-viral assay using Vero E6 cell line, viral RNA by qRT-PCR. Particulars: Vero E6 cells, 48 h; for ΔCt (1 μM) / inhibition at 1 µM: 1 μM compound; for ΔCt (1 μM) / ΔCt (5 μM): increase in Ct vs no-drug control; for ΔCt (5 μM) / inhibition at 5 µM: 5 μM compound; for inhibition at 1 µM / inhibition at 5 µM: Severe acute respiratory syndrome coronavirus 2, Vero C1008, calculated from ΔCt; for inhibition at 1 µM: read-out: % SARS-CoV-2 Inactivation (1 μM); for inhibition at 5 µM: read-out: % SARS-CoV-2 Inactivation (5 μM).

In the case of `CC(C)c1ccccc1Nc1nc2c(C(F)(F)F)cc(C(F)(F)F)cc2[nH]1` [Example 18, N-(2-isopropylphenyl)-4,6-bis(trifluoromethyl)-1H-benzo[d]imidazol-2-amine], the “ΔCt (1 μM)” value was found to be 1.4, the “ΔCt (5 μM)” value is 1.4, the inhibition at 1 µM is under 3% and the inhibition at 5 µM was under 3%.

Take `CC(C)Nc1nc2c(C(F)(F)F)cc(C(F)(F)F)cc2[nH]1` [Example 15, N-isopropyl-4,6-bis(trifluoromethyl)-1H-benzo[d]imidazol-2-amine]: the “ΔCt (1 μM)” value stood at 3.1, the “ΔCt (5 μM)” value came out at 4.2, the inhibition at 1 µM was 90% and the inhibition at 5 µM is over 90%.

For `FC(F)(F)c1cc(C(F)(F)F)c2nc(Nc3ccc4ccccc4c3)[nH]c2c1` [Example 17, N-(naphthalen-2-yl)-5,7-bis(trifluoromethyl)-1H-benzo[d]imidazol-2-amine], the “ΔCt (1 μM)” value is listed as 3, the “ΔCt (5 μM)” value is on record as 1.5, the inhibition at 1 µM was 90% and the inhibition at 5 µM was under 3%.

Regarding `FC(F)(F)c1cc(C(F)(F)F)c2nc(Nc3ccccc3C(F)(F)F)[nH]c2c1` [Example 28, 4,6-bis(trifluoromethyl)-N-(2-(trifluoromethyl)phenyl)-1H-benzo[d]imidazol-2-amine], the “ΔCt (1 μM)” value was −2, the “ΔCt (5 μM)” value turned out to be 2, the inhibition at 1 µM was under 3% and the inhibition at 5 µM was under 3%.

Turning to `FC(F)(F)Oc1ccc2nc(Nc3cc(C(F)(F)F)cc(C(F)(F)F)c3)[nH]c2c1` [Example 29, N-(3,5-bis(trifluoromethyl)phenyl)-6-(trifluoromethoxy)-1H-benzo[d]imidazol-2-amine], the “ΔCt (1 μM)” value turned out to be 4.7, the “ΔCt (5 μM)” value was determined as 11.5, the inhibition at 1 µM was over 95% and the inhibition at 5 µM is 99.9%.

Take `Fc1ccccc1Nc1nc2c(C(F)(F)F)cc(C(F)(F)F)cc2[nH]1` [Example 23, N-(2-fluorophenyl)-4,6-bis(trifluoromethyl)-1H-benzo[d]imidazol-2-amine]: the “ΔCt (1 μM)” value is listed as −0.3, the “ΔCt (5 μM)” value was determined as 5.2, the inhibition at 1 µM is under 3% and the inhibition at 5 µM is over 95%.

Take `FC(F)(F)c1cc(C(F)(F)F)c2nc(NC3CCOCC3)[nH]c2c1` [Example 7, N-(tetrahydro-2H-pyran-4-yl)-4,6-bis(trifluoromethyl)-1H-benzo[d]imidazol-2-amine]: the “ΔCt (1 μM)” value worked out at 0.9, the “ΔCt (5 μM)” value is −0.32, the inhibition at 1 µM was under 3% and the inhibition at 5 µM is under 3%.

As for `CN(c1ccc(C(F)(F)F)cc1)c1nc2cccc(C(F)(F)F)c2[nH]1` [Example 43, N-methyl-7-(trifluoromethyl)-N-(4-(trifluoromethyl)phenyl)-1H-benzo[d]imidazol-2-amine], the “ΔCt (1 μM)” value amounted to 1.8, the “ΔCt (5 μM)” value came out at 3.6, the inhibition at 1 µM is under 3% and the inhibition at 5 µM is over 90%.

With `FC(F)(F)c1ccc(Nc2nc3c(C(F)(F)F)cc(C(F)(F)F)cc3[nH]2)cc1` [Example 27, 4,6-bis(trifluoromethyl)-N-(4-(trifluoromethyl)phenyl)-1H-benzo[d]imidazol-2-amine], the “ΔCt (1 μM)” value is 1.2, the “ΔCt (5 μM)” value is 8, the inhibition at 1 µM was under 3% and the inhibition at 5 µM is over 99%.

As for `Fc1cc2nc(Nc3ccc(C(F)(F)F)cc3)[nH]c2cc1F` [Example 12, 5,6-difluoro-N-(4-(trifluoromethyl)phenyl)-1H-benzo[d]imidazol-2-amine], the “ΔCt (1 μM)” value was determined as 2.4, the “ΔCt (5 μM)” value is listed as 3.5, the inhibition at 1 µM is under 3% and the inhibition at 5 µM was 90%.

Take `FC(F)(F)c1cccc(Nc2nc3ccc(C(F)(F)F)cc3[nH]2)c1` [Example 32, 6-(trifluoromethyl)-N-(3-(trifluoromethyl)phenyl)-1H-benzo[d]imidazol-2-amine]: the “ΔCt (1 μM)” value was 0.2, the “ΔCt (5 μM)” value turned out to be 9.3, the inhibition at 1 µM was under 3% and the inhibition at 5 µM was over 99%.

As to `FC(F)(F)c1cc(Nc2nc3c(C(F)(F)F)cc(C(F)(F)F)cc3[nH]2)cc(C(F)(F)F)c1` [Example 1, N-(3,5-bis(trifluoromethyl)phenyl)-4,6-bis(trifluoromethyl)-1H-benzo[d]imidazol-2-amine], the “ΔCt (1 μM)” value worked out at 5.7, the “ΔCt (5 μM)” value was determined as 12, the inhibition at 1 µM was over 95% and the inhibition at 5 µM was over 99.9%.

Turning to `FC(F)(F)Oc1cccc(Nc2nc3c(C(F)(F)F)cc(C(F)(F)F)cc3[nH]2)c1` [Example 22, N-(3-(trifluoromethoxy)phenyl)-4,6-bis(trifluoromethyl)-1H-benzo[d]imidazol-2-amine], the “ΔCt (1 μM)” value is recorded as 3.3, the “ΔCt (5 μM)” value is on record as 7.4, the inhibition at 1 µM was 90% and the inhibition at 5 µM is 99%.

`O=S1(=O)CCC(Nc2nc3c(C(F)(F)F)cc(C(F)(F)F)cc3[nH]2)C1` (stereo not drawn) [Example 20, 3-((4,6-bis(trifluoromethyl)-1H-benzo[d]imidazol-2-yl)amino)tetrahydrothiophene 1,1-dioxide]: the “ΔCt (1 μM)” value is 1.7, the “ΔCt (5 μM)” value was found to be 3.7, the inhibition at 1 µM was under 3% and the inhibition at 5 µM is over 90%.

`CN(c1cccc(C(F)(F)F)c1)c1nc2cccc(C(F)(F)F)c2[nH]1` [Example 42, N-methyl-7-(trifluoromethyl)-N-(3-(trifluoromethyl)phenyl)-1H-benzo[d]imidazol-2-amine]: the “ΔCt (1 μM)” value was 1, the “ΔCt (5 μM)” value is 2.1, the inhibition at 1 µM was under 3% and the inhibition at 5 µM was under 3%.

Turning to `Fc1cccc(Nc2nc3c(C(F)(F)F)cc(C(F)(F)F)cc3[nH]2)c1` [Example 24, N-(3-fluorophenyl)-4,6-bis(trifluoromethyl)-1H-benzo[d]imidazol-2-amine], the “ΔCt (1 μM)” value came to 0.7, the “ΔCt (5 μM)” value is listed as 4.3, the inhibition at 1 µM is under 3% and the inhibition at 5 µM is over 90%.

As for `CN(c1cccc(C(F)(F)F)c1)c1nc2c(C(F)(F)F)cc(C(F)(F)F)cc2[nH]1` [Example 40, N-methyl-4,6-bis(trifluoromethyl)-N-(3-(trifluoromethyl)phenyl)-1H-benzo[d]imidazol-2-amine], the “ΔCt (1 μM)” value is listed as 5, the “ΔCt (5 μM)” value came to 12.2, the inhibition at 1 µM was over 95% and the inhibition at 5 µM is over 99.9%.

For `CN(c1cc(C(F)(F)F)cc(C(F)(F)F)c1)c1nc2c(C(F)(F)F)cc(C(F)(F)F)cc2[nH]1` [Example 41, N-(3,5-bis(trifluoromethyl)phenyl)-N-methyl-4,6-bis(trifluoromethyl)-1H-benzo[d]imidazol-2-amine], the “ΔCt (1 μM)” value came out at 3.8, the “ΔCt (5 μM)” value is 13.4, the inhibition at 1 µM is over 90% and the inhibition at 5 µM was over 99.9%.
